The values that follow come from patent US7235533B2, “Compounds and their uses” (Rodaris Pharmaceuticals Limited, priority 2000, dated 2007).

One assay deals with PKA (Homo sapiens, UniProt P17612). The assay is described as follows: PKA inhibition assay. The format is biochemical. The text has this: (§1) Methods for obtaining A-type and P-type mediators are set out in Caro et al, 1997, and in WO98/11116 and WO98/11117. Protocols for determining characteristic IPG biological activities such as PDH activation, PKA inhibition, acetylCoA activation, fructose-1,6-bis-phosphatase activity and lipogenesis are well known in the art or provided in the experimental section below.
(§2) The compounds of the invention can be tested for one or more the characteristic IPG-P and/or IPG-A activities mentioned above to determine whether they will be suitable for use a IPG mimetics or antagonists. Preferred assays measure the effect of the compounds on PDH phosphatase, PKA or lipogenesis. Protocols for these assays are provided in Caro et al^[14].

A further assay has as its target T1, PDH phosphatase (Homo sapiens, UniProt Q9P0J1).
T1 sequence (Q9P0J1 72-537): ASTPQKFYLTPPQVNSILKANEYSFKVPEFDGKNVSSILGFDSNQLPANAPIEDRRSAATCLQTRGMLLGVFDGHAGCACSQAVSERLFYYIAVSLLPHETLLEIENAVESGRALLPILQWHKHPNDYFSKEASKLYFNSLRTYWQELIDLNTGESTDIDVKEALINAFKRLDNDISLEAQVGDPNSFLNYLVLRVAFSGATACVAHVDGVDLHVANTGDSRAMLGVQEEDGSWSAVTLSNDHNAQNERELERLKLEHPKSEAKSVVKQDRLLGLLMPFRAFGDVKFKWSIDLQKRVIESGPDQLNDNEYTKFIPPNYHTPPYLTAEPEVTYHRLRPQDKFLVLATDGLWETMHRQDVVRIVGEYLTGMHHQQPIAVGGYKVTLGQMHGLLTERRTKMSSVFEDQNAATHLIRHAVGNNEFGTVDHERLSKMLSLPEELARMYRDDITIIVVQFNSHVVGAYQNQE
The assay is described as follows: PDH activation assay. Type of assay: biochemical. The conditions noted are these: 100 μM compound.
Source text: as §1, §2

“6-O-(2-Ammonio-2-deoxy-β-D-glucopyranosyl)-D-chiro-inositol-1-phosphate [RGL1019]”: the PKA inhibition stood at 32% at PKA (0.1 μM compound) and 31% on PKA (10 μM compound).

In the case of `COC1C(O)C(O)C(OC2OC(CO)C(O)C(O)C2N)C(O)C1O` [RGL1015, O-(2-amino-2-deoxy-D-glucopyranosyl)-β(1,6)-3-O-methyl-chiro-inositol], the PDH activation at PDH phosphatase was found to be 38%. The figures for the PKA inhibition at PKA (0.1 μM compound), on PKA (1.0 μM compound) and on PKA (10 μM compound) were 14%, 15% and 12%, respectively.

Regarding `NC1C(OC2C(O)C(O)C(O)C(O)C2O)OC(CO)C(O)C1O` [RGL1018, 6-O-(2-Amino-2-deoxy-β-D-glucopyranosyl)-D-chiro-inositol], the PKA inhibition at PKA (0.1 μM compound) was 19%.

Turning to `NC1C(OC2C(O)C(O)C(O)C(O)C2O)OC(COP(=O)(O)O)C(O)C1O` [RGL1023, 1′-D-6-O-(2′-amino-2′-deoxy-6′-phosphate-α-D-glucopyranosyl)-myo-inositol], at PDH phosphatase, the PDH activation is given as 14%.

The molecule `CO[C@H]1[C@H](O)[C@@H](O)[C@@H](O[C@H]2O[C@H](CO)[C@@H](O)[C@H](O)[C@H]2N)[C@H](O)[C@@H]1O` [RGL1024, O-(2-amino-2-deoxy-D-glucopyranosyl)-α(1,6)-D-3-O-methyl-chiro-inositol] showed a PDH activation on PDH phosphatase of 65%. Moreover, the figures for the PKA inhibition on PKA (0.1 μM compound), at PKA (1.0 μM compound) and at PKA (10 μM compound) were 17%, 34% and 2%, respectively.

As to `N[C@H]1[C@@H](O[C@H]2[C@H](O)[C@H](O)[C@H](O)[C@@H](O)[C@@H]2O)O[C@H](CO)[C@@H](OP(=O)(O)O)[C@@H]1O` [RGL1027, 1′-D-6-O-(2′-amino-2′-deoxy-4′-phosphate-α-D-glucopyranosyl)-myo-inositol], the PDH activation on PDH phosphatase amounted to 132%. In addition, the PKA inhibition on PKA (0.1 μM compound) was 18%; on PKA (10 μM compound) it was 10%.

With `N[C@H]1[C@@H](O[C@H]2[C@H](O)[C@H](O)[C@H](O)[C@@H](O)[C@@H]2O)O[C@H](CO)[C@@H](O)[C@@H]1OP(=O)(O)O` [RGL1029, 1′-D-6-O-(2′-amino-2′-deoxy-3′-phosphate-α-D-glucopyranosyl)-myo-inositol], the PDH activation on PDH phosphatase is recorded as 361%. In addition, the PKA inhibition on PKA (0.1 μM compound) stood at 59%; on PKA (10 μM compound) it was 33%.

On PDH phosphatase, “O-(2-amino-2deoxy-D-galactopyranosyl)-α(1,6)-D-3-O-methyl-chiro-inositol [RGL1025]” had a PDH activation of 17%. For the same molecule, the PKA inhibition is reported as 48% at PKA (0.1 μM compound) and −13% at PKA (1.0 μM compound).
